Assay results reported in ChEMBL document CHEMBL1201862, “PubChem BioAssay data set” (2004).
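Dose response: 5 concentrations. Exposure: 48 h. Format: 96-well plates. Endpoint: linear interpolation; highest concentration if not reached. The concentration for 50% growth inhibition is given as GI50.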 The source made the active and inactive calls. Cut-off read from the data, not from the text of the source: active = GI50 up to about 1.1 µM and inactive = higher.

Assays:
Assay in all cases: NCI tumour cell line growth inhibition, 48 h
HCT-116 = tested on: HCT-116
SF-268 = tested on: SF-268
HCC 2998 = tested on: HCC 2998
SW-620 = tested on: SW-620
RXF 393 = tested on: RXF 393
NCI-H23 = tested on: NCI-H23
HOP-92 = tested on: HOP-92
NCI-H460 = tested on: NCI-H460
KM12 = tested on: KM12
SK-MEL-2 = tested on: SK-MEL-2
HT-29 = tested on: HT-29
PC-3 = tested on: PC-3
HCT-15 = tested on: HCT-15
OVCAR-5 = tested on: OVCAR-5
K562 = tested on: K562
SK-OV-3 = tested on: SK-OV-3
SK-MEL-28 = tested on: SK-MEL-28
UO-31 = tested on: UO-31
UACC-257 = tested on: UACC-257
M14 = tested on: M14
CCRF-CEM = tested on: CCRF-CEM
T47D = tested on: T47D
NCI-H226 = tested on: NCI-H226
OVCAR-8 = tested on: OVCAR-8
MDA-N = tested on: MDA-N
MOLT-4 = tested on: MOLT-4
LOX IMVI = tested on: LOX IMVI
SF-539 = tested on: SF-539
OVCAR-3 = tested on: OVCAR-3
NCI-H522 = tested on: NCI-H522
RPMI-8226 = tested on: RPMI-8226
HOP-62 = tested on: HOP-62
OVCAR-4 = tested on: OVCAR-4
CAKI-1 = tested on: CAKI-1
SK-MEL-5 = tested on: SK-MEL-5
SF-295 = tested on: SF-295
MCF7 = tested on: MCF7
DU-145 = tested on: DU-145
EKVX = tested on: EKVX
ACHN = tested on: ACHN
786-0 = tested on: 786-0
MDA-MB-435 = tested on: MDA-MB-435
A498 = tested on: A498
MDA-MB-231 = tested on: MDA-MB-231
IGROV-1 = tested on: IGROV-1
Hs-578T = tested on: Hs-578T
U-251 = tested on: U-251
TK-10 = tested on: TK-10
NCI/ADR-RES = tested on: NCI/ADR-RES
SR = tested on: SR
UACC-62 = tested on: UACC-62
SN12C = tested on: SN12C
A549 = tested on: A549
SNB-75 = tested on: SNB-75
COLO 205 = tested on: COLO 205
Malme-3M = tested on: Malme-3M

Compound: O=C(O)c1cccc2c1/C(=N/Nc1ccccc1)CC2
- GI50 (HCT-116): > 100 µM (inactive)
- GI50 (SF-268): > 100 µM (inactive)
- GI50 (HCC 2998): > 100 µM (inactive)
- GI50 (SW-620): > 100 µM (inactive)
- GI50 (RXF 393): > 100 µM (inactive)
- GI50 (NCI-H23): > 100 µM (inactive)
- GI50 (HOP-92): > 100 µM (inactive)
- GI50 (NCI-H460): 32.1 µM (inactive)
- GI50 (KM12): > 100 µM (inactive)
- GI50 (SK-MEL-2): 66.8 µM (inactive)
- GI50 (HT-29): > 100 µM (inactive)
- GI50 (PC-3): > 100 µM (inactive)
- GI50 (HCT-15): > 100 µM
- GI50 (OVCAR-5): > 100 µM (inactive)
- GI50 (K562): > 100 µM (inactive)
- GI50 (SK-OV-3): > 100 µM (inactive)
- GI50 (SK-MEL-28): > 100 µM (inactive)
- GI50 (UO-31): > 100 µM (inactive)
- GI50 (UACC-257): 65.9 µM (inactive)
- GI50 (M14): 16.6 µM (inactive)
- GI50 (CCRF-CEM): > 100 µM (inactive)
- GI50 (T47D): 9.84 µM (inactive)
- GI50 (NCI-H226): 19.9 µM (inactive)
- GI50 (OVCAR-8): > 100 µM (inactive)
- GI50 (MDA-N): > 100 µM (inactive)
- GI50 (MOLT-4): > 100 µM (inactive)
- GI50 (LOX IMVI): > 100 µM (inactive)
- GI50 (SF-539): > 100 µM (inactive)
- GI50 (OVCAR-3): > 100 µM (inactive)
- GI50 (NCI-H522): > 100 µM (inactive)
- GI50 (RPMI-8226): > 100 µM (inactive)
- GI50 (HOP-62): > 100 µM (inactive)
- GI50 (OVCAR-4): > 100 µM (inactive)
- GI50 (CAKI-1): 26.1 µM (inactive)
- GI50 (SK-MEL-5): > 100 µM (inactive)
- GI50 (SF-295): 17.2 µM (inactive)
- GI50 (MCF7): 45.1 µM (inactive)
- GI50 (DU-145): > 100 µM (inactive)
- GI50 (EKVX): > 100 µM (inactive)
- GI50 (ACHN): > 100 µM (inactive)
- GI50 (786-0): > 100 µM (inactive)
- GI50 (MDA-MB-435): > 100 µM (inactive)
- GI50 (A498): > 100 µM (inactive)
- GI50 (MDA-MB-231): > 100 µM (inactive)
- GI50 (IGROV-1): > 100 µM (inactive)
- GI50 (Hs-578T): > 100 µM (inactive)
- GI50 (U-251): > 100 µM (inactive)
- GI50 (TK-10): > 100 µM (inactive)
- GI50 (NCI/ADR-RES): > 100 µM (inactive)
- GI50 (SR): > 100 µM (inactive)

Compound: COc1cc(/C=C2\CN(C)CC3=C2N=C(S)NC3c2cc(OC)c(OC)c(OC)c2)cc(OC)c1OC (configuration not stated)
- GI50 (SF-268): 94.4 µM (inactive)
- GI50 (UACC-62): 20.9 µM (inactive)
- GI50 (SW-620): > 100 µM (inactive)
- GI50 (SN12C): 67.9 µM (inactive)
- GI50 (HOP-92): > 100 µM (inactive)
- GI50 (NCI-H460): 54.5 µM (inactive)
- GI50 (SK-MEL-2): > 100 µM (inactive)
- GI50 (HT-29): 67.9 µM (inactive)
- GI50 (PC-3): 38.3 µM (inactive)
- GI50 (HCT-15): 80.2 µM
- GI50 (SK-OV-3): > 100 µM (inactive)
- GI50 (UACC-257): > 100 µM (inactive)
- GI50 (A549): 49.9 µM (inactive)
- GI50 (M14): 51.2 µM (inactive)
- GI50 (T47D): > 100 µM (inactive)
- GI50 (OVCAR-8): 83.2 µM (inactive)
- GI50 (MDA-N): 50.2 µM (inactive)
- GI50 (MOLT-4): 57.4 µM (inactive)
- GI50 (LOX IMVI): 36.2 µM (inactive)
- GI50 (OVCAR-3): > 100 µM (inactive)
- GI50 (SNB-75): 28.6 µM (inactive)
- GI50 (COLO 205): 79.8 µM (inactive)
- GI50 (NCI-H522): 54.7 µM (inactive)
- GI50 (HOP-62): 69.7 µM (inactive)
- GI50 (OVCAR-4): 56 µM (inactive)
- GI50 (SK-MEL-5): 17.9 µM (inactive)
- GI50 (SF-295): 65.5 µM (inactive)
- GI50 (DU-145): > 100 µM (inactive)
- GI50 (Malme-3M): > 100 µM (inactive)
- GI50 (EKVX): 32.6 µM (inactive)
- GI50 (ACHN): 91.2 µM (inactive)
- GI50 (786-0): 39.2 µM (inactive)
- GI50 (MDA-MB-231): 61.9 µM (inactive)
- GI50 (IGROV-1): 71.8 µM (inactive)
- GI50 (Hs-578T): 30.5 µM (inactive)
- GI50 (NCI/ADR-RES): > 100 µM (inactive)
- GI50 (SR): > 100 µM (inactive)
